Measured values: patent US20230219965A1 (KSQ Therapeutics, Inc., priority 2020, published 2023)
Read-outs that look alike come from different tables or passages of the source.

What was measured:
[1] = biological target: USP1/UAF1 enzyme (Homo sapiens, UniProt O94782); experiment: USP1/UAF1 deubiquitination assay (ubiquitin-rhodamine 110 substrate); format: biochemical; conditions: read-out: USP1 IC50 (Ub-Rho)
Summary of the method: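 Cleavage of 150 nM ubiquitin-rhodamine 110 by 0.05 nM USP1/UAF1 was followed as fluorescence (Ex480/Em540, kinetic, 30 min) in Tris-HCl pH 7.8 buffer with EDTA, BSA, DTT and Tween-20. Compounds, top 10 μM, were preincubated with enzyme 10 min; % inhibition against no-enzyme and DMSO wells gave four-parameter IC50s.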

[2] = Liver microsomal metabolic stability, human liver microsomes (HLM); conditions: human, liver microsomes
Procedure: Samples were prepared by adding 222.5 μL of a master solution (100 mM phosphate buffer and 1 mg/mL liver microsomes (HLM or RLM)) and 25 μL of a 10 mM NADPH solution to incubation plates, which were then warmed for 10 min. Each compound was separately dissolved in DMSO to prepare 10 mM stock solutions, which were then diluted to 100 μM with acetonitrile. A reaction was started by adding 2.5 μL of the 100 μM solution of each compound to separate incubation plates such that the final concentration of for each compound in each plate was 1 μM.
25 μL aliquots of each sample were taken at 0.5, 5, 10, 15, 20 and 30 minutes, and the reaction was stopped by adding 5 volumes of cold acetonitrile with IS (100 nM alprazolam, 200 nM caffeine and 100 nM tolbutamide). The samples were then centrifuged at 3,220 G for 30 minutes, and 100 μL of the supernatant fluid was mixed with 100 μL of ultra-pure H2O.
The samples were then analyzed by LC-MS/MS. Peak areas were determined from extracted ion chromatograms. Slope values (k) were determined by linear regression of the natural logarithm of the remaining percentage of the compound vs. incubation time curve. The in vitro half-life (in vitro t1/2) was determined from the slope value using the following equation:

[3] = system: Ub-PCNA levels in the nucleus of ES2 cells (USP1 activity); experiment: ES2 Ub-PCNA immunofluorescence (IF) assay; format: cell-based; conditions: Homo sapiens, ES-2; ES2 cells, 3 hours, Ub-PCNA immunofluorescence; read-out: USP1 IC50 (Ub-PCNA)
Summary of the method: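 AC50 derived from percent Ub-PCNA-positive nuclei, positivity set by a 95% cutoff from untreated-well intensities. Readout by imaging immunofluorescence (anti-Ub-PCNA, DAPI nuclear mask) after methanol fixation. Compound exposure: 3 h at 37° C, 0.3% DMSO final, on cells plated overnight.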

[4] = Liver microsomal metabolic stability, rat liver microsomes (RLM); conditions: rat, liver microsomes, t1/2 (min) in RLM, 1 μM compound, 1 mg/mL microsomes, NADPH
[5] = ADME solubility determination in PBS at pH 2.0 and pH 7.4; format: physicochemical; conditions: phosphate buffered saline, 25 °C, thermodynamic from solid
Summary of the method: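 Solubility was read by LC-MS/MS on centrifuged supernatants, calibrated to a known-concentration standard and corrected for dilution. Compound, dried down from 10 mM DMSO stock, was equilibrated 24 h at 25° C with shaking in PBS at pH 2.0 or pH 7.4.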

[6] = pH 2, aqueous buffer, PBS pH 2.0, 25° C., read-out: Solubility at pH 2.0
[7] = pH 7.4, aqueous buffer, PBS pH 7.4, 25° C., read-out: Solubility at pH 7.4

Sequence of USP1/UAF1 enzyme (O94782 whole entry): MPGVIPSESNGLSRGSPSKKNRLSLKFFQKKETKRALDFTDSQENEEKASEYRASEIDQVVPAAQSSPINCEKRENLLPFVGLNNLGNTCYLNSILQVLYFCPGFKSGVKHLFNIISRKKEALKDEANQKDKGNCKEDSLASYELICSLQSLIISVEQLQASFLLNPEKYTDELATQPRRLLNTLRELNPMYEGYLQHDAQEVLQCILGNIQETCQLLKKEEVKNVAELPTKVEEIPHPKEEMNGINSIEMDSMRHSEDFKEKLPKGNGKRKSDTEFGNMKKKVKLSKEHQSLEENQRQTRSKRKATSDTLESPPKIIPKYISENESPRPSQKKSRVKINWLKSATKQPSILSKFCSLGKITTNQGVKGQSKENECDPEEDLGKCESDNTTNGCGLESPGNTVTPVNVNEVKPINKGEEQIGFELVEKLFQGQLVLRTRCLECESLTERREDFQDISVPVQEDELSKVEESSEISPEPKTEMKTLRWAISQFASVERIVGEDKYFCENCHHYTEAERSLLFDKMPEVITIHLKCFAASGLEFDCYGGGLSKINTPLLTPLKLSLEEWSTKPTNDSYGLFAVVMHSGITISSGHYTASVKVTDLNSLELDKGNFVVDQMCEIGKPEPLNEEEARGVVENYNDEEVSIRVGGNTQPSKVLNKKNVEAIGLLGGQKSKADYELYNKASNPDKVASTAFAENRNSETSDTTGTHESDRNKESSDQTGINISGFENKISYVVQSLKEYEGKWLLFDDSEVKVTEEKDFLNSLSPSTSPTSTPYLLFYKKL
Sequence of USP1/UAF1 enzyme (Q8TAF3 whole entry partner): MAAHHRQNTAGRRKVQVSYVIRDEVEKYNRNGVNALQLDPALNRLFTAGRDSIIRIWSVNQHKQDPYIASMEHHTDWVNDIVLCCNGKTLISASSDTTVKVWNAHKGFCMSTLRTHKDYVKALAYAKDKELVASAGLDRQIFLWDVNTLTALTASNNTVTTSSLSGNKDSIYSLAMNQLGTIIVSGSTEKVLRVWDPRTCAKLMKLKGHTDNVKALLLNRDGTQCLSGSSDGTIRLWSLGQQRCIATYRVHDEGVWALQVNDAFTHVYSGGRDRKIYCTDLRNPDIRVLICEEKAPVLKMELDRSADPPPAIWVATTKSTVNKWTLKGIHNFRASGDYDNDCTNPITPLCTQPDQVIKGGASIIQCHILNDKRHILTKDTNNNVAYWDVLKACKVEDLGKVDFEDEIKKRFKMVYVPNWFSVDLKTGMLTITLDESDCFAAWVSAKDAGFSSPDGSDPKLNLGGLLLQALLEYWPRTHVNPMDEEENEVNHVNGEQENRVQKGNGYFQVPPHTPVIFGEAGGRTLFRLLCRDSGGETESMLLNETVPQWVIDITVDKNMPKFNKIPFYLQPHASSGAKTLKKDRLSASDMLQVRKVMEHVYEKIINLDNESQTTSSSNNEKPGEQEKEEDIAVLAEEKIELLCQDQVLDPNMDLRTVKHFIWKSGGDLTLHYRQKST

IC50 [1]	half-life at 1 μM [2]	IC50 [3]	half-life at 1 μM [4]	solubility at 24 h [5, 6]	solubility at 24 h [5, 7]	SMILES
< 100 nM	> 25 min	< 100 nM	> 25 min	≥ 10 µM	< 10 µM	COc1cc(CN2C(=O)CCn3nc(-c4c(OC)ncnc4C4CC4)cc32)cc(F)c1-c1nc(C(F)(F)F)cn1C(C)C [Example 144]
< 100 nM	< 25 min	< 100 nM	< 25 min	< 10 µM	< 10 µM	CCn1cc(C(F)(F)F)nc1-c1c(Cl)cc(CN2C(=O)CCn3nc(-c4c(OC)ncnc4C4CC4)cc32)cc1OC [Example 145]
< 100 nM	< 25 min	< 100 nM	< 25 min	< 10 µM	< 10 µM	Cc1cnn(C(C)C)c1-c1nn2c(c1Cl)N(Cc1ccc(-c3nc(C(F)(F)F)cn3C)cc1)CCC2 [Example 147, 3-chloro-2-(1-isopropyl-4-methyl-1H-pyrazol-5-yl)-4-(4-(1-methyl-4-(trifluoromethyl)-1H-imidazol-2-yl)benzyl)-4,5,6,7-tetrahydropyrazolo[1,5-α]pyrimidine]
< 100 nM	< 25 min	< 100 nM	< 25 min	< 10 µM	< 10 µM	Cc1cnn(C(C)C)c1-c1nn2c(c1Cl)N(Cc1ccc(-c3nc(C(F)(F)F)cn3C(C)C)c(F)c1)CCC2 [Example 148]
< 100 nM	< 25 min	< 100 nM	< 25 min	< 10 µM	< 10 µM	CCn1cc(C(F)(F)F)nc1-c1ccc(CN2C(=O)CCn3nc(-c4c(Cl)cnn4C(C)COC)cc32)cc1 (stereo not drawn) [Example 151]
< 100 nM	< 25 min	100 to 500 nM	< 25 min	< 10 µM	< 10 µM	CCn1cc(C(F)(F)F)nc1-c1ccc(CN2C(=O)CCn3nc(-c4c(Cl)cnn4C4(COC)CC4)cc32)cc1F [Example 153]
< 100 nM	> 25 min	100 to 500 nM	< 25 min	< 10 µM	< 10 µM	CCn1cc(C(F)(F)F)nc1-c1ccc(CN2C(=O)CCn3nc(-c4c(Cl)cnn4C4(COC)CC4)cc32)cc1 [Example 159]
< 100 nM	< 25 min	100 to 500 nM	< 25 min	< 10 µM	< 10 µM	CCn1cc(C(F)(F)F)nc1-c1ccc(CN2C(=O)CCn3nc(-c4c(Cl)cnn4C(C)COC)cc32)cc1F (stereo not drawn) [Example 160]
< 100 nM	> 25 min	< 100 nM	> 25 min	< 10 µM	< 10 µM	COc1ncnc(C2CC2)c1-c1nc2n(n1)CCC(=O)N2Cc1ccc(-c2nc(C(F)(F)F)cn2C(C)C)c(F)c1 [Example 164, 2-(4-cyclopropyl-6-methoxypyrimidin-5-yl)-4-(3-fluoro-4-(1-isopropyl-4-(trifluoromethyl)-1H-imidazol-2-yl)benzyl)-6,7-dihydro-[1,2,4]triazolo[1,5-α]pyrimidin-5(4H)-one]
< 100 nM	> 25 min	100 to 500 nM	> 25 min	< 10 µM	< 10 µM	COc1cc(CN2C(=O)CCn3nc(-c4c(Cl)cnn4C(C)C)nc32)ccc1-c1nc(C(F)(F)F)cn1C(C)C [Example 165]
100 to 500 nM	> 25 min	100 to 500 nM	> 25 min	≥ 10 µM	≥ 10 µM	COc1cc(CN2C(=O)CCn3nc(-c4c(OC)ncnc4C4CC4)nc32)ccc1-c1nc(C(F)(F)F)cn1C(C)C [Example 166]
< 100 nM	> 25 min	< 100 nM	> 25 min	< 10 µM	< 10 µM	COc1ncnc(C2CC2)c1-c1nc2n(n1)CCC(=O)N2Cc1ccc(-c2nc(C(F)(F)F)cn2C(C)C)cc1 [Example 168]
< 100 nM	> 25 min	100 to 500 nM	> 25 min	≥ 10 µM	< 10 µM	COc1ncnc(C2CC2)c1-c1nc2n(n1)CCC(=O)N2C(C)c1ccc(-c2nc(C(F)(F)F)cn2C(C)C)cc1 (stereo not drawn) [Example 169]
< 100 nM	> 25 min	< 100 nM	> 25 min	≥ 10 µM	≥ 10 µM	COc1ncnc(C2CC2)c1-c1nc2n(n1)CCC(=O)N2Cc1ccc(-c2nc(C(F)(F)F)cn2C)c(F)c1 [Example 170]
< 100 nM	> 25 min	< 100 nM	> 25 min	≥ 10 µM	≥ 10 µM	CCn1cc(C(F)(F)F)nc1-c1ccc(CN2C(=O)CCn3nc(-c4c(OC)ncnc4C4CC4)nc32)cc1 [Example 171]
< 100 nM	> 25 min	100 to 500 nM	> 25 min	≥ 10 µM	≥ 10 µM	COc1ncnc(C2CC2)c1-c1nc2n(n1)CCC(=O)N2Cc1ccc(-c2nc(C(F)(F)F)cn2C(C)C)c(Cl)c1 [Example 172]
< 100 nM	> 25 min	< 100 nM	> 25 min	≥ 10 µM	≥ 10 µM	COc1ncnc(C2CC2)c1-c1nc2n(n1)CCC(=O)N2[C@@H](C)c1ccc(-c2nc(C(F)(F)F)cn2C(C)C)c(F)c1 [Example 173]
< 100 nM	> 25 min	< 100 nM	> 25 min	≥ 10 µM	≥ 10 µM	COc1ncnc(C2CC2)c1-c1nc2n(n1)CCC(=O)N2[C@H](C)c1ccc(-c2nc(C(F)(F)F)cn2C(C)C)c(F)c1 [Example 174]
< 100 nM	> 25 min	< 100 nM	> 25 min	≥ 10 µM	≥ 10 µM	CCn1cc(C(F)(F)F)nc1-c1ccc(CN2C(=O)CCn3nc(-c4c(OC)ncnc4C4CC4)nc32)cc1Cl [Example 175]
< 100 nM	> 25 min	< 100 nM	> 25 min	≥ 10 µM	≥ 10 µM	CCn1cc(C(F)(F)F)nc1-c1c(F)cc(CN2C(=O)CCn3nc(-c4c(OC)ncnc4C4CC4)nc32)cc1OC [Example 176]
< 100 nM	< 25 min	< 100 nM	> 25 min	< 10 µM	< 10 µM	CC(C)n1cc(C(F)(F)F)nc1-c1ccc([C@H](C)N2C(=O)CCn3nc(-c4c(Cl)cnn4C(C)C)nc32)cc1 [Example 177]
< 100 nM	< 25 min	< 100 nM	< 25 min	≥ 10 µM	< 10 µM	CC(C)n1cc(C(F)(F)F)nc1-c1ccc([C@@H](C)N2C(=O)CCn3nc(-c4c(Cl)cnn4C(C)C)nc32)cc1 [Example 178]
